From ChEMBL document CHEMBL1201862, “PubChem BioAssay data set” (2004)
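Exposure lasted 48 hours, with cells grown in 96-well plates and compounds tested at five concentrations. GI50 = concentration required for 50% inhibition of growth.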 Active and inactive are the calls of the source. Rule as the data show it: active = GI50 up to about 1.1 µM and inactive = higher.

Assays:
Experiment in all cases: growth of human tumour cells (NCI), 48 h
MOLT-4 = system: MOLT-4
SF-268 = system: SF-268
KM-20L2 = system: KM-20L2
OVCAR-3 = system: OVCAR-3
U-251 = system: U-251
CCRF-CEM = system: CCRF-CEM
SNB-19 = system: SNB-19
M19-MEL = system: M19-MEL
A549 = system: A549
786-0 = system: 786-0
KM12 = system: KM12
DLD-1 = system: DLD-1
SR = system: SR
UACC-257 = system: UACC-257
SW-620 = system: SW-620
LOX IMVI = system: LOX IMVI
OVCAR-8 = system: OVCAR-8
SN12C = system: SN12C
SNB-78 = system: SNB-78
M14 = system: M14
UO-31 = system: UO-31
IGROV-1 = system: IGROV-1
RXF 631 = system: RXF 631
UACC-62 = system: UACC-62
OVCAR-5 = system: OVCAR-5
HT-29 = system: HT-29
TK-10 = system: TK-10
COLO 205 = system: COLO 205
CAKI-1 = system: CAKI-1
SK-MEL-28 = system: SK-MEL-28
LXFL 529 = system: LXFL 529
SK-OV-3 = system: SK-OV-3
NCI-H522 = system: NCI-H522
K562 = system: K562
EKVX = system: EKVX
Malme-3M = system: Malme-3M
NCI-H460 = system: NCI-H460
SF-539 = system: SF-539
DMS-114 = system: DMS-114
SK-MEL-2 = system: SK-MEL-2
HCT-116 = system: HCT-116
A498 = system: A498
SK-MEL-5 = system: SK-MEL-5
OVCAR-4 = system: OVCAR-4
HOP-18 = system: HOP-18
HCC 2998 = system: HCC 2998
SF-295 = system: SF-295
ACHN = system: ACHN
SNB-75 = system: SNB-75
RPMI-8226 = system: RPMI-8226
NCI-H23 = system: NCI-H23
HCT-15 = system: HCT-15
HOP-62 = system: HOP-62
DMS-273 = system: DMS-273
RXF 393 = system: RXF 393
NCI-H226 = system: NCI-H226
XF498 = system: XF498
HL-60 = system: HL-60
HOP-92 = system: HOP-92

COc1cc(NCC(C#N)C#N)ccc1/N=N/c1ccc([N+](=O)[O-])cc1
GI50 (MOLT-4): 58.3 µM (inactive)
GI50 (SF-268): > 100 µM (inactive)
GI50 (KM-20L2): > 100 µM (inactive)
GI50 (OVCAR-3): 64.3 µM (inactive)
GI50 (U-251): > 100 µM (inactive)
GI50 (CCRF-CEM): > 100 µM (inactive)
GI50 (SNB-19): 65.5 µM (inactive)
GI50 (M19-MEL): > 100 µM (inactive)
GI50 (A549): > 100 µM (inactive)
GI50 (786-0): > 100 µM (inactive)
GI50 (KM12): > 100 µM (inactive)
GI50 (DLD-1): > 100 µM (inactive)
GI50 (SR): 49.5 µM (inactive)
GI50 (UACC-257): > 100 µM (inactive)
GI50 (SW-620): > 100 µM (inactive)
GI50 (LOX IMVI): > 100 µM (inactive)
GI50 (OVCAR-8): > 100 µM (inactive)
GI50 (SN12C): > 100 µM (inactive)
GI50 (SNB-78): > 100 µM (inactive)
GI50 (M14): > 100 µM (inactive)
GI50 (UO-31): > 100 µM (inactive)
GI50 (IGROV-1): > 100 µM (inactive)
GI50 (RXF 631): > 100 µM (inactive)
GI50 (UACC-62): > 100 µM (inactive)
GI50 (OVCAR-5): > 100 µM (inactive)
GI50 (HT-29): > 100 µM (inactive)
GI50 (TK-10): > 100 µM (inactive)
GI50 (COLO 205): > 100 µM (inactive)
GI50 (CAKI-1): > 100 µM (inactive)
GI50 (SK-MEL-28): > 100 µM (inactive)
GI50 (LXFL 529): 37.6 µM (inactive)
GI50 (SK-OV-3): > 100 µM (inactive)
GI50 (NCI-H522): 46.5 µM (inactive)
GI50 (K562): 91.2 µM (inactive)
GI50 (EKVX): > 100 µM (inactive)
GI50 (Malme-3M): > 100 µM (inactive)
GI50 (NCI-H460): > 100 µM (inactive)
GI50 (SF-539): > 100 µM (inactive)
GI50 (DMS-114): 65.2 µM (inactive)
GI50 (SK-MEL-2): > 100 µM (inactive)
GI50 (HCT-116): > 100 µM (inactive)
GI50 (A498): > 100 µM (inactive)
GI50 (SK-MEL-5): > 100 µM (inactive)
GI50 (OVCAR-4): > 100 µM (inactive)
GI50 (HOP-18): > 100 µM (inactive)
GI50 (HCC 2998): > 100 µM (inactive)
GI50 (SF-295): > 100 µM (inactive)
GI50 (ACHN): > 100 µM (inactive)
GI50 (SNB-75): 30.7 µM (inactive)
GI50 (RPMI-8226): 49.1 µM (inactive)
GI50 (NCI-H23): > 100 µM (inactive)
GI50 (HCT-15): > 100 µM
GI50 (HOP-62): > 100 µM (inactive)
GI50 (DMS-273): > 100 µM (inactive)
GI50 (RXF 393): > 100 µM (inactive)
GI50 (NCI-H226): > 100 µM (inactive)

O[C@]12CCCC[C@H]1CCC2
GI50 (MOLT-4): > 100 µM (inactive)
GI50 (SF-268): > 100 µM (inactive)
GI50 (OVCAR-3): > 100 µM (inactive)
GI50 (U-251): > 100 µM (inactive)
GI50 (CCRF-CEM): > 100 µM (inactive)
GI50 (SNB-19): > 100 µM (inactive)
GI50 (M19-MEL): > 100 µM (inactive)
GI50 (XF498): > 100 µM (inactive)
GI50 (A549): > 100 µM (inactive)
GI50 (786-0): > 100 µM (inactive)
GI50 (KM12): > 100 µM (inactive)
GI50 (HL-60): > 100 µM (inactive)
GI50 (UACC-257): > 100 µM (inactive)
GI50 (SW-620): > 100 µM (inactive)
GI50 (LOX IMVI): > 100 µM (inactive)
GI50 (OVCAR-8): > 100 µM (inactive)
GI50 (SN12C): > 100 µM (inactive)
GI50 (HOP-92): > 100 µM (inactive)
GI50 (SNB-78): > 100 µM (inactive)
GI50 (M14): > 100 µM (inactive)
GI50 (UO-31): > 100 µM (inactive)
GI50 (IGROV-1): > 100 µM (inactive)
GI50 (RXF 631): > 100 µM (inactive)
GI50 (UACC-62): > 100 µM (inactive)
GI50 (OVCAR-5): > 100 µM (inactive)
GI50 (HT-29): > 100 µM (inactive)
GI50 (TK-10): > 100 µM (inactive)
GI50 (COLO 205): > 100 µM (inactive)
GI50 (CAKI-1): > 100 µM (inactive)
GI50 (SK-MEL-28): > 100 µM (inactive)
GI50 (LXFL 529): > 100 µM (inactive)
GI50 (SK-OV-3): > 100 µM (inactive)
GI50 (NCI-H522): > 100 µM (inactive)
GI50 (K562): > 100 µM (inactive)
GI50 (EKVX): > 100 µM (inactive)
GI50 (Malme-3M): > 100 µM (inactive)
GI50 (NCI-H460): > 100 µM (inactive)
GI50 (SF-539): > 100 µM (inactive)
GI50 (DMS-114): > 100 µM (inactive)
GI50 (SK-MEL-2): > 100 µM (inactive)
GI50 (HCT-116): > 100 µM (inactive)
GI50 (A498): > 100 µM (inactive)
GI50 (SK-MEL-5): > 100 µM (inactive)
GI50 (OVCAR-4): > 100 µM (inactive)
GI50 (HCC 2998): > 100 µM (inactive)
GI50 (SF-295): > 100 µM (inactive)
GI50 (ACHN): > 100 µM (inactive)
GI50 (SNB-75): > 100 µM (inactive)
GI50 (RPMI-8226): > 100 µM (inactive)
GI50 (NCI-H23): > 100 µM (inactive)
GI50 (HCT-15): > 100 µM
GI50 (HOP-62): > 100 µM (inactive)
GI50 (DMS-273): > 100 µM (inactive)
GI50 (RXF 393): > 100 µM (inactive)
